In the supplement of paper PMC10307832:

What was measured:
Assay in all cases: relative viability (nuclei count vs DMSO), 5 days (fraction); higher = more cells survive
201T = tested on: 201T
Outline: (§1)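 A single step with final 0.05% Triton X-100, 1% formaldehyde and 1 ug/ml Hoechst fixed the cells and stained nuclei 5 days after treatment. Lung cancer cell lines in 1536-well plates had been treated by pin tool the day after seeding with one drug alone or a fixed anchor-drug dose plus five library-drug doses (not always all listed) in √10 steps, and nuclei were counted on 4× images. Relative viability is the ratio of nuclei in treated wells to nuclei in vehicle wells, taken as the median of duplicate plates.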

A-427 = tested on: A-427
Outline: as §1

H3255 = tested on: H3255
Outline: as §1

HCC-44 = tested on: HCC-44
Outline: as §1

LC-2-ad = tested on: LC-2-ad
Outline: as §1

LCLC-103H = tested on: LCLC-103H
Outline: as §1

LCLC-97TM1 = tested on: LCLC-97TM1
Outline: as §1

LK-2 = tested on: LK-2
Outline: as §1

LU99A = tested on: LU99A
Outline: as §1

NCI-H1793 = tested on: NCI-H1793
Outline: as §1

NCI-H2347 = tested on: NCI-H2347
Outline: as §1

NCI-H23 = tested on: NCI-H23
Outline: as §1

NCI-H460 = tested on: NCI-H460
Outline: as §1

NCI-H596 = tested on: NCI-H596
Outline: as §1

NCI-H727 = tested on: NCI-H727
Outline: as §1

PC-14 = tested on: PC-14
Outline: as §1

SW 900 = tested on: SW 900
Outline: as §1

**Q.** Which relative viability (201T; first compound 0.005 µM) does the source give for `COc1cc2nccc(Oc3ccc(NC(=O)Nc4cc(C)on4)c(Cl)c3)c2cc1OC` [Tivozanib] + NC(=O)Nc1cc(-c2cccc(F)c2)sc1C(=O)N[C@H]1CCCNC1 [AZD7762] (partner 0.2 µM) here?
**A.** 0.599

**Q.** What about the relative viability (201T; first compound 0.01581 µM) of the same compound?
**A.** 0.575

**Q.** And the relative viability (201T; first compound 0.05 µM)?
**A.** 0.659

**Q.** And the relative viability (201T; first compound 0.1581 µM)?
**A.** 0.595

**Q.** And the relative viability (201T; first compound 0.5 µM)?
**A.** 0.601

**Q.** What about the relative viability (A-427; first compound 0.005 µM) of the same compound?
**A.** 0.75

**Q.** What about the relative viability (A-427; first compound 0.01581 µM) of the same compound?
**A.** 0.795

**Q.** And the relative viability (A-427; first compound 0.05 µM)?
**A.** 0.728

**Q.** And the relative viability (A-427; first compound 0.1581 µM)?
**A.** 0.68

**Q.** What about the relative viability (A-427; first compound 0.5 µM) of the same compound?
**A.** 0.719

**Q.** And the relative viability (H3255; first compound 0.005 µM)?
**A.** 0.672

**Q.** What about the relative viability (H3255; first compound 0.01581 µM) of the same compound?
**A.** 0.86

**Q.** And the relative viability (H3255; first compound 0.05 µM)?
**A.** 0.961

**Q.** What about the relative viability (H3255; first compound 0.1581 µM) of the same compound?
**A.** 0.735

**Q.** What about the relative viability (H3255; first compound 0.5 µM) of the same compound?
**A.** 0.861

**Q.** What about the relative viability (HCC-44; first compound 0.005 µM) of the same compound?
**A.** 0.996

**Q.** And the relative viability (HCC-44; first compound 0.01581 µM)?
**A.** 0.963

**Q.** And the relative viability (HCC-44; first compound 0.05 µM)?
**A.** 1.01

**Q.** What about the relative viability (HCC-44; first compound 0.1581 µM) of the same compound?
**A.** 1.09

**Q.** What about the relative viability (HCC-44; first compound 0.5 µM) of the same compound?
**A.** 1.01

**Q.** What about the relative viability (LC-2-ad; first compound 0.005 µM) of the same compound?
**A.** 0.821

**Q.** And the relative viability (LC-2-ad; first compound 0.01581 µM)?
**A.** 0.846

**Q.** And the relative viability (LC-2-ad; first compound 0.05 µM)?
**A.** 0.856

**Q.** And the relative viability (LC-2-ad; first compound 0.1581 µM)?
**A.** 0.881

**Q.** What about the relative viability (LC-2-ad; first compound 0.5 µM) of the same compound?
**A.** 0.815

**Q.** What about the relative viability (LCLC-103H; first compound 0.005 µM) of the same compound?
**A.** 0.758

**Q.** And the relative viability (LCLC-103H; first compound 0.01581 µM)?
**A.** 0.829

**Q.** What about the relative viability (LCLC-103H; first compound 0.05 µM) of the same compound?
**A.** 0.812

**Q.** What about the relative viability (LCLC-103H; first compound 0.1581 µM) of the same compound?
**A.** 0.689

**Q.** What about the relative viability (LCLC-103H; first compound 0.5 µM) of the same compound?
**A.** 0.802

**Q.** And the relative viability (LCLC-97TM1; first compound 0.005 µM)?
**A.** 0.128

**Q.** What about the relative viability (LCLC-97TM1; first compound 0.01581 µM) of the same compound?
**A.** 0.274

**Q.** What about the relative viability (LCLC-97TM1; first compound 0.05 µM) of the same compound?
**A.** 0.343

**Q.** And the relative viability (LCLC-97TM1; first compound 0.1581 µM)?
**A.** 0.208

**Q.** And the relative viability (LCLC-97TM1; first compound 0.5 µM)?
**A.** 0.262

**Q.** What about the relative viability (LK-2; first compound 0.005 µM) of the same compound?
**A.** 0.512

**Q.** What about the relative viability (LK-2; first compound 0.01581 µM) of the same compound?
**A.** 0.278

**Q.** And the relative viability (LK-2; first compound 0.05 µM)?
**A.** 0.494

**Q.** What about the relative viability (LK-2; first compound 0.1581 µM) of the same compound?
**A.** 0.252

**Q.** And the relative viability (LK-2; first compound 0.5 µM)?
**A.** 0.357

**Q.** And the relative viability (LU99A; first compound 0.005 µM)?
**A.** 0.337

**Q.** What about the relative viability (LU99A; first compound 0.01581 µM) of the same compound?
**A.** 0.342

**Q.** What about the relative viability (LU99A; first compound 0.05 µM) of the same compound?
**A.** 0.34

**Q.** And the relative viability (LU99A; first compound 0.1581 µM)?
**A.** 0.27

**Q.** What about the relative viability (LU99A; first compound 0.5 µM) of the same compound?
**A.** 0.288

**Q.** And the relative viability (NCI-H1793; first compound 0.005 µM)?
**A.** 0.448

**Q.** What about the relative viability (NCI-H1793; first compound 0.01581 µM) of the same compound?
**A.** 0.391

**Q.** What about the relative viability (NCI-H1793; first compound 0.05 µM) of the same compound?
**A.** 0.419

**Q.** And the relative viability (NCI-H1793; first compound 0.5 µM)?
**A.** 0.328

**Q.** What about the relative viability (NCI-H2347; first compound 0.005 µM) of the same compound?
**A.** 0.73

**Q.** What about the relative viability (NCI-H2347; first compound 0.01581 µM) of the same compound?
**A.** 0.836

**Q.** And the relative viability (NCI-H2347; first compound 0.05 µM)?
**A.** 0.92

**Q.** What about the relative viability (NCI-H2347; first compound 0.1581 µM) of the same compound?
**A.** 0.685

**Q.** And the relative viability (NCI-H2347; first compound 0.5 µM)?
**A.** 0.709

**Q.** What about the relative viability (NCI-H23; first compound 0.005 µM) of the same compound?
**A.** 0.185

**Q.** And the relative viability (NCI-H23; first compound 0.01581 µM)?
**A.** 0.229

**Q.** And the relative viability (NCI-H23; first compound 0.05 µM)?
**A.** 0.295

**Q.** And the relative viability (NCI-H23; first compound 0.5 µM)?
**A.** 0.176

**Q.** What about the relative viability (NCI-H460; first compound 0.005 µM) of the same compound?
**A.** 0.533

**Q.** What about the relative viability (NCI-H460; first compound 0.01581 µM) of the same compound?
**A.** 0.689

**Q.** What about the relative viability (NCI-H460; first compound 0.05 µM) of the same compound?
**A.** 0.651

**Q.** What about the relative viability (NCI-H460; first compound 0.1581 µM) of the same compound?
**A.** 0.566

**Q.** What about the relative viability (NCI-H460; first compound 0.5 µM) of the same compound?
**A.** 0.471

**Q.** And the relative viability (NCI-H596; first compound 0.005 µM)?
**A.** 1.03

**Q.** And the relative viability (NCI-H596; first compound 0.01581 µM)?
**A.** 1.1

**Q.** And the relative viability (NCI-H596; first compound 0.05 µM)?
**A.** 1.44

**Q.** And the relative viability (NCI-H596; first compound 0.5 µM)?
**A.** 1.06

**Q.** What about the relative viability (NCI-H727; first compound 0.005 µM) of the same compound?
**A.** 0.548

**Q.** And the relative viability (NCI-H727; first compound 0.01581 µM)?
**A.** 0.657

**Q.** And the relative viability (NCI-H727; first compound 0.05 µM)?
**A.** 0.408

**Q.** And the relative viability (NCI-H727; first compound 0.1581 µM)?
**A.** 0.442

**Q.** What about the relative viability (NCI-H727; first compound 0.5 µM) of the same compound?
**A.** 0.697

**Q.** What about the relative viability (PC-14; first compound 0.005 µM) of the same compound?
**A.** 0.333

**Q.** What about the relative viability (PC-14; first compound 0.01581 µM) of the same compound?
**A.** 0.338

**Q.** What about the relative viability (PC-14; first compound 0.05 µM) of the same compound?
**A.** 0.369

**Q.** And the relative viability (PC-14; first compound 0.1581 µM)?
**A.** 0.385

**Q.** What about the relative viability (PC-14; first compound 0.5 µM) of the same compound?
**A.** 0.375

**Q.** And the relative viability (SW 900; first compound 0.005 µM)?
**A.** 0.649

**Q.** And the relative viability (SW 900; first compound 0.01581 µM)?
**A.** 0.636

**Q.** What about the relative viability (SW 900; first compound 0.05 µM) of the same compound?
**A.** 0.675

**Q.** And the relative viability (SW 900; first compound 0.5 µM)?
**A.** 0.547
